Tested on: not listed separately
Test: Inhibition of linoleic acid peroxidation (AAPH)
Format: biochemical
Details: anti-lipid peroxidation, 50 µM
Source text: We also used water-soluble 2,2′-[…](2-amidinopropane) hydrochloride (AAPH) for the generation of free radicals. AAPH has been extensively used as a clean and controllable source of thermally produced alkylperoxyl free radicals. The peroxyl radicals produced by the action of AAPH show total similarity to cellular activities such as lipid peroxidation. […] It seems that the presence of 3,5-di-tert-butyl-group greatly enhances protection against lipid peroxidation (6i/ii and 7i/ii followed by 3ii and 5ii). The lipid peroxidation inhibitory activity seems to be concentration dependent.
2,2’-Azobis(2-amidinopropane) dihydrochloride (AAPH) was used as a free radical initiator to start the oxidation reaction. The method was based on the production of conjugated diene hydroperoxide by oxidation of linoleic acid at 234 nm expressed as an increased absorption. Trolox was used as reference compound (93%) (Table 2).

Structure (SMILES)	AAPH% 50 µM [%]
O=C(O)C(=CC(Br)=Cc1ccccc1)c1ccc(O)cc1 [Compound 4ii, 4-Bromo-2-(4-hydroxyphenyl)-5-phenylpenta-2,4-dienoic acid]	59
CC(C)(C)c1cc(C=C(C(=O)O)c2ccc(Br)cc2)cc(C(C)(C)C)c1O [Compound 7i, 2-(4-Bromophenyl)-3-(3,5-di-tert-butyl-4-hydroxyphenyl)acrylic acid]	61

Same assay, conditions: anti-lipid peroxidation, 100 µM

Structure (SMILES)	AAPH% 100 µM [%]
O=C(O)C(=CC(Br)=Cc1ccccc1)c1ccc(O)cc1 [Compound 4ii, 4-Bromo-2-(4-hydroxyphenyl)-5-phenylpenta-2,4-dienoic acid]	97
CC(C)(C)c1cc(C=C(C(=O)O)c2ccc(Br)cc2)cc(C(C)(C)C)c1O [Compound 7i, 2-(4-Bromophenyl)-3-(3,5-di-tert-butyl-4-hydroxyphenyl)acrylic acid]	100

Target: T1, soybean lipoxygenase (Glycine max, UniProt P08170)
T1 construct: purchased Sigma Chemical, Co. (St. Louis)
T1 sequence (P08170 1-839): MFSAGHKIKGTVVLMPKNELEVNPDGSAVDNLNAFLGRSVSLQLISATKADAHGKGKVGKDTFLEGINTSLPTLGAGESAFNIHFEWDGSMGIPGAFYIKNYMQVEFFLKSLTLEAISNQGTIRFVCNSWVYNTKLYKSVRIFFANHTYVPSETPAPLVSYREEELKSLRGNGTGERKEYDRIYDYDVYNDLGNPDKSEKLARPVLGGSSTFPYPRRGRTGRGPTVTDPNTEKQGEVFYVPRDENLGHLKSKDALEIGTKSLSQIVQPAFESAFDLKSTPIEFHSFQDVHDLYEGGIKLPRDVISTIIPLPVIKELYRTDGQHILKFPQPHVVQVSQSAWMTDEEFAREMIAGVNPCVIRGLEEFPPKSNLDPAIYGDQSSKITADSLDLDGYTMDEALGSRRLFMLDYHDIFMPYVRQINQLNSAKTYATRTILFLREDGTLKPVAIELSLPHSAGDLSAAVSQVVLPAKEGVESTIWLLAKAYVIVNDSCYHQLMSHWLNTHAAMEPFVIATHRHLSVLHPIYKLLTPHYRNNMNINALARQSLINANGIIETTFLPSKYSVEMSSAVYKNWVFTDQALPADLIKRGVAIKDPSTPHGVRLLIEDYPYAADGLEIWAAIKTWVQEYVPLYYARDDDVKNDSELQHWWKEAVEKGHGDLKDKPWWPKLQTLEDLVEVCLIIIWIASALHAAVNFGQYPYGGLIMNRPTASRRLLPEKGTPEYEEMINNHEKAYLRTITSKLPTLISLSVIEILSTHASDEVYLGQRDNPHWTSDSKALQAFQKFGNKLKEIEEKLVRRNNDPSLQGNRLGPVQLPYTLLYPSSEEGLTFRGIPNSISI
Test: Soybean lipoxygenase inhibition in vitro
Format: biochemical
Details: sodium linoleate 0.1 mM, 234 nm, read-out: LOX IC50
Protocol: Many research groups have used readily obtainable soybean lipoxygenase, which is a homologue of mammalian lipoxygenase and well studied. Due to its availability and its well-characterised crystal structure, soybean LOX was selected to be used in this study.
In vitro study was evaluated as reported previously by our group. The tested compounds were incubated at room temperature with sodium linoleate (0.1 mM) and 0.2 mL of enzyme solution (1/9 × 104 w/v in saline). The method was based to the conversion of sodium linoleate to 13-hydroperoxylinoleic acid at 234 nm. […] In order to determine the IC50 values different concentrations were used.

IC50 [µM]	Structure (SMILES)
69	O=C(O)C(=CC(Br)=Cc1ccccc1)c1ccc(O)cc1 [Compound 4ii, 4-Bromo-2-(4-hydroxyphenyl)-5-phenylpenta-2,4-dienoic acid]
72.5	CC(C)(C)c1cc(C=C(C(=O)O)c2ccc(Br)cc2)cc(C(C)(C)C)c1O [Compound 7i, 2-(4-Bromophenyl)-3-(3,5-di-tert-butyl-4-hydroxyphenyl)acrylic acid]

Tested on: not listed separately
Test: Experimental lipophilicity as RM values by reversed phase TLC (RPTLC)
Format: physicochemical
Details: methanol/water 77/23 with 0.1% acetic acid, 24 °C, average of at least 5 measurements
Source text: Lipophilicity is a physicochemical property correlated with the biological activity. Lipophilicity influences ligand-target binding interactions, solubility, absorption, distribution, bioavailability, metabolism and elimination (ADME) and toxicological outcomes. The lipophilicity of the novel cinnamic acids was experimentally measured as RM values using a reverse phase thin layer chromatography (RPTLC) method. This is acknowledged as a reliable, fast and convenient approach for expressing lipophilicity (Table 1). RM relates to the thermodynamic Rf value in a logarithmic form. Bate-Smith and Westall firstly determined lipophilicity as RM values in 1950 [31]. The Br-substituted derivatives 1i–7i are more lipophilic than the OH-substituted ones 1ii–7ii which can be easily explained by their structural characteristics.
Reversed phase TLC (RPTLC) was performed on silica gel plates impregnated with 55% (v/v) liquid paraffin in light petroleum ether. The mobile phase was a methanol/water mixture (77/23, v/v) containing 0.1% of acetic acid. The plates were developed in closed chromatography tanks saturated with the mobile phase at 24 °C. Spots were detected under UV light. RM values were determined from the corresponding Rf values (from five individual measurements) using the equation RM = log[(1/Rf) − 1] [17, 18, 28].

RM (±SD)	Structure (SMILES)
0.011 (0.001)	O=C(O)C(=CC(Br)=Cc1ccccc1)c1ccc(O)cc1 [Compound 4ii, 4-Bromo-2-(4-hydroxyphenyl)-5-phenylpenta-2,4-dienoic acid]
1.151 (0.021)	CC(C)(C)c1cc(C=C(C(=O)O)c2ccc(Br)cc2)cc(C(C)(C)C)c1O [Compound 7i, 2-(4-Bromophenyl)-3-(3,5-di-tert-butyl-4-hydroxyphenyl)acrylic acid]

Tested on: not listed separately
Test: Non enzymatic assay of superoxide radical scavenging activity (PMS/NADH/NBT)
Format: biochemical
Details: not given
Protocol: Superoxide radical is a main cause of oxidative stress, expressing its biological toxicity by the inactivation of iron-sulfur cluster containing enzymes. The superoxide anion radical (O2^−^•) is less toxic than the hydroxyl radical, but still being one of the most known toxic reactive oxygen species (ROS). In this assay the superoxide anion radicals were generated by a non-enzymatically assay and the compounds are tested at 100 μM final concentration (Table 2). Caffeic acid (CA) has been used as a reference compound. Compound 4ii presented the highest activity, followed by compound 3ii. We succeeded to derive a quantitative-structure activity relationship model for this activity in which the topological polar surface (TPAS) of the compounds seem to govern the superoxide anion scavenging activity:% Superoxide Anion Scavenging Activity (100 µM) = 0.019 (±0.007) TPSA + 0.813 (±0.358) n = 6, r = 0.962, r^2 = 0.926, q^2 = 0.694, s = 0.122, Q = 7.885, F1,6 = 3.701, α = 0.1 clog P vs. TPSA 0.
The superoxide radicals are generated by mixing N-methylphenazonium methyl sulfate (PMS), NADH and air–oxygen and determined by the nitroblue tetrazolium method and measured at 560 nm (Table 2). Caffeic acid was used as reference compound [17, 18, 28].

Structure (SMILES)	O2−•% 100 µM [%]
O=C(O)C(=CC(Br)=Cc1ccccc1)c1ccc(O)cc1 [Compound 4ii, 4-Bromo-2-(4-hydroxyphenyl)-5-phenylpenta-2,4-dienoic acid]	100
CC(C)(C)c1cc(C=C(C(=O)O)c2ccc(Br)cc2)cc(C(C)(C)C)c1O [Compound 7i, 2-(4-Bromophenyl)-3-(3,5-di-tert-butyl-4-hydroxyphenyl)acrylic acid]	54

Tested on: not given
Test: not given
Details: not given

melting point [°C]	Structure (SMILES)
155 to 157	O=C(O)C(=CC(Br)=Cc1ccccc1)c1ccc(O)cc1 [Compound 4ii, 4-Bromo-2-(4-hydroxyphenyl)-5-phenylpenta-2,4-dienoic acid]
137 to 138	CC(C)(C)c1cc(C=C(C(=O)O)c2ccc(Br)cc2)cc(C(C)(C)C)c1O [Compound 7i, 2-(4-Bromophenyl)-3-(3,5-di-tert-butyl-4-hydroxyphenyl)acrylic acid]

Tested on: not listed separately
Test: ABTS+• decolorization assay
Format: biochemical
Details: 1 min, 734 nm
Protocol: No role for lipophilicity was found. Oxidation of ABTS with potassium persulfate generates directly the ABTS radical cation (ABTS^+•) with no involvement of an intermediary radical, which is then reduced upon adding electron-donating antioxidants.
In order to produce the ABTS radical cation (ABTS^+•), ABTS stock solution in water (7 mM) was mixed with potassium persulfate (2.45 mM) and left in the dark at room temperature for 12–16 h before use. Our published experimental technique was used (Table 2). The results are recorded after 1 min of the mixing solutions at 734 nm. The results were compared to the appropriate standard inhibitor Trolox.

Structure (SMILES)	ABTS+•% 100 µM [%]
O=C(O)C(=CC(Br)=Cc1ccccc1)c1ccc(O)cc1 [Compound 4ii, 4-Bromo-2-(4-hydroxyphenyl)-5-phenylpenta-2,4-dienoic acid]	24
CC(C)(C)c1cc(C=C(C(=O)O)c2ccc(Br)cc2)cc(C(C)(C)C)c1O [Compound 7i, 2-(4-Bromophenyl)-3-(3,5-di-tert-butyl-4-hydroxyphenyl)acrylic acid]	28

Tested on: not listed separately
Test: Reducing activity of the stable radical DPPH
Format: biochemical
Details: 50 µM, 20 min
Protocol: The substituted acids were monitored for the antioxidant activity by the use of the stable 2,2-diphenyl-1-picrylhydrazyl radical (DPPH) at concentration 50 µM and 100 µM after 20 and 60 min (Table 1). In this assay the DPPH radical is reduced by single electron transfer from the antioxidant. Strong antioxidants are the phenoxide anions from phenolic compounds like catechol and derivatives, such as nordihydroguaretic acid (NDGA), the reference compound. The compounds presented medium reducing abilities from 29–61%, due to steric reasons; small differences were found among the compounds with time and concentration. 4-Br-substituted-3 phenyl acetic acid derivatives (Series I) are equipotent to 4-OH-substituted-3 phenyl acetic acid derivatives (Series II). No differences were observed between 4i and 5i and 4ii and 5ii.
To a solution of DPPH in absolute ethanol an equal volume of the compounds dissolved in DMSO was added. The final concentrations of the measured solutions of the novel acids were 50 and 100 µM starting from a stock solution (10 mM) in DMSO. The absorbance was recorded at 517 nm, after 20 and 60 min at room temperature (Table 1).

Structure (SMILES)	RA% 50 µM 20 min [%]
O=C(O)C(=CC(Br)=Cc1ccccc1)c1ccc(O)cc1 [Compound 4ii, 4-Bromo-2-(4-hydroxyphenyl)-5-phenylpenta-2,4-dienoic acid]	34
CC(C)(C)c1cc(C=C(C(=O)O)c2ccc(Br)cc2)cc(C(C)(C)C)c1O [Compound 7i, 2-(4-Bromophenyl)-3-(3,5-di-tert-butyl-4-hydroxyphenyl)acrylic acid]	34

Same assay, conditions: 50 µM, 60 min

Structure (SMILES)	RA% 50 µM 60 min [%]
O=C(O)C(=CC(Br)=Cc1ccccc1)c1ccc(O)cc1 [Compound 4ii, 4-Bromo-2-(4-hydroxyphenyl)-5-phenylpenta-2,4-dienoic acid]	46
CC(C)(C)c1cc(C=C(C(=O)O)c2ccc(Br)cc2)cc(C(C)(C)C)c1O [Compound 7i, 2-(4-Bromophenyl)-3-(3,5-di-tert-butyl-4-hydroxyphenyl)acrylic acid]	35

Same assay, conditions: 100 µM, 20 min

Structure (SMILES)	RA% 100 µM 20 min [%]
O=C(O)C(=CC(Br)=Cc1ccccc1)c1ccc(O)cc1 [Compound 4ii, 4-Bromo-2-(4-hydroxyphenyl)-5-phenylpenta-2,4-dienoic acid]	35
CC(C)(C)c1cc(C=C(C(=O)O)c2ccc(Br)cc2)cc(C(C)(C)C)c1O [Compound 7i, 2-(4-Bromophenyl)-3-(3,5-di-tert-butyl-4-hydroxyphenyl)acrylic acid]	30

Same assay, conditions: 100 µM, 60 min

Structure (SMILES)	RA% 100 µM 60 min [%]
O=C(O)C(=CC(Br)=Cc1ccccc1)c1ccc(O)cc1 [Compound 4ii, 4-Bromo-2-(4-hydroxyphenyl)-5-phenylpenta-2,4-dienoic acid]	37
CC(C)(C)c1cc(C=C(C(=O)O)c2ccc(Br)cc2)cc(C(C)(C)C)c1O [Compound 7i, 2-(4-Bromophenyl)-3-(3,5-di-tert-butyl-4-hydroxyphenyl)acrylic acid]	31

Tested on: not listed separately
Test: Competition with DMSO for hydroxyl radicals (Fe3+/ascorbic acid system)
Format: biochemical
Details: hydroxyl radical scavenging
Protocol: Competition of the novel substituted acids with DMSO for hydroxyl radicals was measured. Hydroxyl radicals were generated using the Fe^3+/ascorbic acid system and expressed as a percentage inhibition of formaldehyde production in the presence of each compound at 100 μM (Table 2). All the synthesized derivatives strongly scavenge hydroxyl radicals at 100 μM in comparison to the reference compound Trolox.
The hydroxyl radicals generated by the Fe^3+/ascorbic acid system, were detected by the determination of formaldehyde produced from the oxidation of DMSO (Table 2). Trolox was used as reference compound [17, 18, 28].

Structure (SMILES)	HO•% 100 µM [%]
O=C(O)C(=CC(Br)=Cc1ccccc1)c1ccc(O)cc1 [Compound 4ii, 4-Bromo-2-(4-hydroxyphenyl)-5-phenylpenta-2,4-dienoic acid]	96
CC(C)(C)c1cc(C=C(C(=O)O)c2ccc(Br)cc2)cc(C(C)(C)C)c1O [Compound 7i, 2-(4-Bromophenyl)-3-(3,5-di-tert-butyl-4-hydroxyphenyl)acrylic acid]	87

From paper PMC6337588, “Multi-Target Cinnamic Acids for Oxidative Stress and Inflammation: Design, Synthesis, Biological Evaluation and Modeling Studies” (Molecules, 2018)
